According to US12576015B2, “Antimicrobial mixture containing 4-(3-ethoxy-4-hydroxyphenyl)butan-2-one and an alcohol compound, and cosmetic composition containing same” (L'OREAL, priority 2018, dated 2026):

System: Aspergillus niger ATCC 6275
Assay: Microplate growth inhibition / MIC and FIC index (synergy) test, optical density at 620 nm
Assay type: cell-based
Settings: for microbial growth percentage: 0 A
From the text: 1] with: • MIC of A with B: minimum concentration of product A in the combination A+B which makes it possible to obtain an inhibitory effect; • MIC of B with A: minimum concentration of product B in the combination A+B which makes it possible to obtain an inhibitory effect; • MIC of A: minimum inhibitory concentration of product A alone; • MIC of B: minimum inhibitory concentration of product B alone.
When the FIC index value is less than or equal to 1, it is considered that the combination of test compounds has a synergistic effect.
The microbial strain Aspergillus niger ATCC 6275, and a double-concentration Sabouraud broth liquid culture medium supplemented with polyoxyethylenated (20 EO) sorbitan monopalmitate (Tween 40 from Croda) and Phytagel© BioReagent were used (i.e. a mixture of 5 g of Phytagel+0.6 g of Tween 40+60 g of Sabouraud broth).
A 96-well microplate at an incubation temperature of 32.5° C. is used.
The incubation time of the microplate is: • from 24 to 30 h under aerobic conditions for microbial Aspergillus niger ATCC 6275; • from 18 to 24 h under aerobic conditions for Candida albicans ATCC 10231, Pseudomonas aeruginosa ATCC 9027 and Staphylococcus aureus ATCC 6538; Tests
A 10% (weight/volume) stock solution was prepared by mixing 1 g of compound in 9 ml of aqueous 1%0 agar solution. Successive dilutions were made with the 1%0 agar solution.
50 μl of each of the daughter solutions obtained containing compound A or B are added to the microplate wells. 100 μl of Sabouraud liquid nutrient broth inoculated at double concentration with the Aspergillus niger strain and 50 μl of aqueous 1%0 agar solution are also added thereto.
50 μl of each of the daughter solutions obtained containing compound A and 50 μl of each of the daughter solutions obtained containing compound B are added to the microplate wells. 100 μl of Sabouraud liquid nutrient broth inoculated at double concentration with the strain Aspergillus niger are also added thereto.
A positive microbial growth control was also prepared. The positive microbial growth control corresponds to the mixture of 100 μl of aqueous 1%0 agar solution with 100 μl of Sabouraud liquid nutrient broth inoculated at double concentration with the strain Aspergillus niger in the absence of compounds A and B.
An absorbance control was performed in parallel on compounds A and B alone. This control corresponds to 100 μl of double concentration sterile Sabouraud liquid nutrient broth+100 μl of double concentration compound A or B.
In the three cases (absorbance control, growth control and test), the final volume present in each of the microplate wells is 200 μl.
In the two cases (test and control), the inoculum represents the concentration of the Aspergillus niger strain present in the final volume of the wells (200 μl) and is between 2 and 6×10^5 cfu/ml of Aspergillus niger.

% MIC of B alone (first concentration giving growth <= 25%): 0.5%
Compound: CC(=O)c1ccc(O)cc1 [B, 4-hydroxyacetophenone]
microbial growth percentage (0.0625 weight % B): 86%
microbial growth percentage (0.125 weight % B): 72%
microbial growth percentage (0.25 weight % B): 79%
microbial growth percentage (0.5 weight % B): 6%
